Measured values reported in patent US11161826B2, “Manufacturing methods and polymorphs of a thiazoline anti-hyperalgesic agent” (ACADIA PHARMACEUTICALS INC., priority 2019, dated 2021).
Where a name gives a salt, the structure may show the parent alone.

Key:
Type in all cases: physicochemical
[1] = Thermogravimetric Analysis (TGA) decomposition
Description: The combined DSC/TGA results for (R)-2-(2-hydroxyphenylamino)-5,5-dimethyl-4,5-dihydrothiazole-4-carboxylic acid mono-hydrochloride is provided in FIG. 7. […] An amorphous form of Compound 1 can be made by, for example, lyophilizing crystalline Compound 1 as described in Example 4 herein.

[2] = Gravimetric Vapor Sorption (GVS)
Description: The sample is hygroscopic.

[3] = Solubility in organic/aqueous solvents

CC1(C)SC(Nc2ccccc2O)=N[C@@H]1C(=O)O [Compound 1, (R)-2-(2-hydroxyphenylamino)-5,5-dimethyl-4,5-dihydrothiazole-4-carboxylic acid mono-hydrochloride]
sparingly soluble: solubility ([3]; 10% water/tetrahydrofuran) | solubility ([3]; 10% water:iso-propyl acetate) | solubility ([3]; ethanol) | solubility ([3]; iso-propanol) | solubility ([3]; water)
hygroscopic: hygroscopicity ([2]; GVS)
~202 °C: TGA start of decomposition (total 5% mass loss) [1]
freely soluble: solubility ([3]; methanol) | solubility ([3]; tert-butyl alcohol:water (1:1))
less than sparingly soluble: solubility ([3]; acetone) | solubility ([3]; ethyl acetate) | solubility ([3]; iso-propyl acetate) | solubility ([3]; n-heptane) | solubility ([3]; tert-butyl alcohol) | solubility ([3]; tert-butyl methyl ether) | solubility ([3]; tetrahydrofuran) | solubility ([3]; toluene)
6%: GVS uptake ([2]; between 0% and 90% RH)
